These results are taken from paper PMC7024556 (Molecules, 2020).

In data set [1] the test system is poly (ADP-ribose) (PAR) polymerization in HeLa cells. The data set is described as follows: Cellular PARylation assay (H2O2-induced PAR polymerization). Type of data set: cell-based. The conditions noted are these: for IC50: Homo sapiens, 18 h compound, 500 μM H2O2, read-out: Inhibit Polymerization of PAR IC50. As to the method: The cellular PARylation assay evaluated the ability of test compounds to inhibit polymerization of PAR. Hela cells were seeded in 96-well plates (10,000 cells/well) in 200 μL of cell complete medium, and were allowed to adhere for 4 h at 37 °C in a humidified atmosphere of 5% CO2. The medium was then removed from the plates, and the cells were treated with varying concentrations of test compounds for 18 h. 100 μL serum-free medium with 500 μM H2O2 solution was added, and the plate was kept at 37 °C for 5 min. Next, cells were fixed for 20 min with prechilled methanol at −20 °C and were incubated with 60 μL Poly(ADP-ribose) monoclonal antibody (1:2000) (prepared at 1x PBS containing 0.05% Tween-20 with 1% bovine serum albumin) at 37 °C for 2 h, followed by incubation with 60 μL IRDye 800CW goat anti-mouse IgG (diluted to 1:5000) and DNA stain DRAQ5 (1:5000) (prepared at 1× PBS containing 0.05% Tween-20 with 1% bovine serum albumin) at 37 °C for 2 h. The fluorescent signal was normalized with the DRAQ5 signal, and IC50 values were calculated using GraphPad Prism 8.0 software.

The test system of the next data set is PARP. The conditions noted are these: PARP inhibitor potency; cited from earlier work.
Data set [2] in a line: Talazoparib UV stability assay (HPLC). Type of data set: physicochemical. The conditions noted are these: 2.63 mM in methanol, 365 nm, up to 10 min. As to the method: The irradiation times were 1 min, 2 min, 3 min, 4 min, 5 min, and 10 min. The irradiated solution was transferred to a volumetric flask and diluted to the same volume with methanol. Then HPLC analysis was performed to detect the compound peak area. […] California, CA, USA) using a mobile phase A (water) and mobile phase B (acetonitrile (ACN)) to elute. The gradient changed from 70% A to 30% A in 10 min, then continuing to elute with 30% A for 5 min. The flow rate was 1 mL/min, and the detection wavelength was 220 nm.

Data set [3] relates to Capan-1 cells (BRCA2-deficient). The data set is described as follows: Cell proliferation assay (CellTiter-Glo), Capan-1. It counts as cell-based. The settings on record: for IC50: Homo sapiens, CAPAN-1, light or radiation study, 10 days incubation. On the procedure: (§1) To assess the cytotoxicity of test compounds on BRCA-deficient cells using a CellTiter-Glo assay. MX-1 cells (BRCA1-deficient) and Capan-1 cells (BRCA2-deficient) were seeded in 96-well plates at densities that allowed linear growth for 10 days, and adhered overnight at 37 °C in a humidified atmosphere of 5% CO2. Cells were treated in their recommended growth medium containing varying concentrations of test compounds. […] After 10 days of incubation, CellTiter-Glo Reagent (Promega, Madison, WI, USA) was added to the plates, which continued to be incubated for 30 min at room temperature. Chemiluminescence values were recorded by a multiplate reader, and IC50 values were calculated using GraphPad Prism 8.0 software.
(In general: Cellular ATP, detected with luciferase, serves as a proxy for viable cell number.)

For data set [4], the system named is MX-1 cells (BRCA1-deficient). The experiment in a line: Cell proliferation assay (CellTiter-Glo), MX-1. Type of data set: cell-based. The conditions noted are these: for IC50: Homo sapiens, MX1, light or radiation study, 10 days incubation. As to the method:
as §1

A short description of data set [5]: UV cleavage test in culture medium DMEM in 96-well plate (HPLC). The conditions noted are these: 10 μM in DMEM, 365 nm, 3 min. It counts as physicochemical. As to the method: Therefore, we tested the Capan-1 cells that could tolerate a longer UV irradiation duration. […] We simulated the same cytotoxicity experimental conditions to evaluate the photolysis of 10 μΜ compound 3 (10 μM is the starting concentration of compound 3 in cytotoxicity experiments) in a 96-well plate.
Supplementary Materials: Design, Synthesis and In Vitro Evaluation of the […]
Jiaguo Li 1, 2, Dian Xiao 2, Lianqi Liu 2, Fei Xie 2, Wei Li 2, Wei Sun 1,*, Xiaohong Yang 1,*, and Xinbo Zhou 2,* […]
wavelength scanning; (B) Local UV/Vis absorption spectra with a wavelength range of 290-500 nm. Compound […]
Introduction of the PPG into the parent compound's molecular structure leads to increased light absorption around 365 nm. Wavelengths shorter than 300 nm is highly energetic and can easily damage tissues and cells. Therefore, 365 nm was considered as the optimal wavelength for deprotection.
Figure S2. UV-cleavage test on the Compound 3 in culture medium DMEM. Compound 3 were dissolved in DMEM medium containing 0.1 %DMSO and added to 96-well plates at a final concentration of 10 μM. After being irradiated for 1 min and 3 min at 365 nm respectively, the samples were analyzed by HPLC. The peak area is plotted against the irradiation time. […]

The target of a further data set is T1, PARP-1 enzyme (Homo sapiens, UniProt P09874).
T1 construct: purchased BPS 80569
T1 sequence (P09874 whole entry): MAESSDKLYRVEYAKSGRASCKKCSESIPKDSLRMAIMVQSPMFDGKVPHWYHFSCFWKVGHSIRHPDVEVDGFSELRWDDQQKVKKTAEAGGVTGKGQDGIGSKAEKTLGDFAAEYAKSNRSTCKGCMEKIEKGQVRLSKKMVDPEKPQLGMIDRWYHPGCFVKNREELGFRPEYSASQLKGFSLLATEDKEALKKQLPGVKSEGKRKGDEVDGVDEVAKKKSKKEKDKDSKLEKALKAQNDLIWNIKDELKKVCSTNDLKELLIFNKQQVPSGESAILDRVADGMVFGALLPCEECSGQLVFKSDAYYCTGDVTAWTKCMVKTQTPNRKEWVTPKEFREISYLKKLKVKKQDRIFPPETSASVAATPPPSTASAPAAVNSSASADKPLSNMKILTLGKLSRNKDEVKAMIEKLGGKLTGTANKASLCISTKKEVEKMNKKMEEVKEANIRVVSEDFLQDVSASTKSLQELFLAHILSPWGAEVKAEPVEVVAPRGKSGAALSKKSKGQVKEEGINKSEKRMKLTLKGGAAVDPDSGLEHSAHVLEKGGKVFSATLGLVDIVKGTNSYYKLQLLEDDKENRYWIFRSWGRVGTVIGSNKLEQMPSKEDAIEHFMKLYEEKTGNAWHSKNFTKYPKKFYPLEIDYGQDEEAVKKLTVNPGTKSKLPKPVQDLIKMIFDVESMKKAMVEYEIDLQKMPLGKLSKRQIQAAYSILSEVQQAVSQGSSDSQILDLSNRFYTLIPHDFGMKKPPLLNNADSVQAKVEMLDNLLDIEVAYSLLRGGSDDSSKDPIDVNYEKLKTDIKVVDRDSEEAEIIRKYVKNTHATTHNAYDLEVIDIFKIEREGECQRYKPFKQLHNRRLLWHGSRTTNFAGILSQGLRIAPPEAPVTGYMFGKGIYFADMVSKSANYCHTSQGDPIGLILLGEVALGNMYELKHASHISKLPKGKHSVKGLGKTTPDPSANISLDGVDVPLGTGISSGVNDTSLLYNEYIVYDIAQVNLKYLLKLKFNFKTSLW
The data set is described as follows: PARP-1 enzyme inhibition assay (PARP-1 Chemiluminescent Assay Kit). It counts as biochemical. As to the method: A PARP-1 Chemiluminescent Assay Kit (Cat# 80569, BPS, San Diego, CA, USA) was used to detect the ability of compounds to inhibit PARP-1 enzyme activity. All experimental steps followed the operating manual. Firstly, each well was precoated with 25 μL 1× histone mixture that was diluted in PBS by incubation at 4 °C overnight. The wells were blocked by adding 100 μL of blocking buffer, then incubated at room temperature for 90 min. Then 12.5 μL of the prepared 1× PARP assay mixture and 1× activated DNA in 1× PARP buffer were added into each well of the assay plate, and 2.5 μL of compound or solvent control were added at varying concentrations. The reaction was initiated by the addition of 10 μL 1 ng/μL PARP-1 enzyme in 1× PARP buffer at room temperature for 60 min. Next, the reaction solution was added with 25 μL of diluted Streptavidin-HRP (1:50 in blocking buffer) to each well at room temperature for an additional 30 min. Finally, 25 μL of Horseradish Peroxidase (HRP) chemiluminescent substrate A and 25 μL of HRP chemiluminescent substrate B were mixed on ice, and the mixture was added by 50 μL per well. The luminescent signal was measured using a multi-function microplate reader, and IC50 values were calculated using GraphPad Prism 8.0 software.

Data set [6] in a line: UV cleavage test in methanol (HPLC). Type of data set: physicochemical. The settings on record: 20 μM in methanol, 365 nm UV. As to the method:
The compound was dissolved in methanol (20 μM), and the solution were irradiated at 365 nm by using an UV crosslinker. Every minute from 0 to 10 min, aliquot samples (200 μL) were determined on an Agilent Eclipse Plus C18 column (4.6 × 150 mm, 5 μm particle size) using mobile phase A (water) and mobile phase B (ACN) to elute. The gradient changed from 70% A to 30% A in 10 min, continuing to elute with 30% A for 5 min. The flow rate was 1 mL/min and the detection wavelength was 220 nm. The peak areas percentage of the compounds at each time point were plotted against the sampling time.

A short description of data set [7]: Phosphate-buffered saline stability of the photoactivatable prodrug (HPLC). The settings on record: 20 μM, pH = 7.4 PBS with 10% DMSO, 37 °C, 48 h. Type of data set: physicochemical. On the procedure:
Twenty μM of the test compound in pH = 7.4 PBS, containing 10% DMSO, were transferred to 13 1 mL volumetric flasks in equal volumes, incubated at 37 °C. The volumetric flasks were taken out at 0 min, 5 min, 10 min, 15 min, 30 min, 1 h, 2 h, 4 h, 8 h, 12 h, 24 h, 48 h, and 7 days, and were frozen at −80 °C. The samples were thawed in sequence and diluted to the same volume with methanol. Then HPLC analysis was performed to detect the compound peak area. Samples were determined on an Agilent Eclipse Plus C18 column (4.6 × 150 mm, 5 μm particle size; California, CA, USA) using a mobile phase A (water) and mobile phase B (ACN) to elute. The gradient changed from 70% A to 30% A in 10 min, continuing to elute with 30% A for 5 min. The flow rate was 1 mL/min, and the detection wavelength was 220 nm.

Setting [8] is: UV+, compound irradiated 20 min at 365 nm before addition to cells.

Bounds are passed on as bounds.

Regarding `Cn1ncnc1[C@H]1c2n[nH]c(=O)c3cc(F)cc(c23)N[C@@H]1c1ccc(F)cc1` [Talazoparib, reference compound], the IC50 in data set [1] is […]; in the data set with PARP, […]; in [3] (240 h, UV-, no irradiation), 3 nM; in [4] (240 h, UV-, no irradiation), 15 nM. Besides, in data set [2], the “UV stability (HPLC peak area)” value was “no significant loss”.
For `Cn1ncnc1[C@H]1c2nn(Cc3cc4c(cc3[N+](=O)[O-])OCO4)c(=O)c3cc(F)cc(c23)N[C@@H]1c1ccc(F)cc1` [compound 3, (8S,9R)-5-Fluoro-8-(4-fluorophenyl)-9-(1-methyl-1H-1,2,4-triazol-5-yl)-2-((6-nitrobenzo[d][1,3]dioxol-5-yl)methyl)-2,7,8,9-tetrahydro-3H pyrido[4,3,2-de]phthalazin-3-one], the “release after UV irradiation under cytotoxicity experimental conditions” value in [5] was “not released completely”. In addition, the IC50 in data set [1] worked out at 329 nM; at PARP-1 enzyme it was 1920 nM; in [3] (240 h, UV-, no irradiation), 863 nM; in data set [3] (UV+, 365 nm irradiation of cells 3 min after 1 h incubation), 92 nM; in [4] (240 h, UV-, no irradiation), 1870 nM; in data set [4] (UV+, 365 nm irradiation of cells 1 min after 1 h incubation) it was 577 nM. For the same compound, the “decrease of PARylation inhibitory activity versus Talazoparib” value in data set [1] (ratio of IC50 values) is not below 658 times. In addition, the “reduction of PARP-1 inhibitory activity versus Talazoparib” value on PARP-1 enzyme (ratio of IC50 values, compound 3 vs Talazoparib) is given as 380 times. For the same compound, the “irradiation time to complete release (photolysis)” value in data set [6] came to 3 min. For the same compound, the “inhibitory activity on Capan-1 cells after UV irradiation versus non-irradiated group” value in data set [3] (UV 3 min vs no UV) is reported as “nine times higher”. Further, in data set [7], the “stability in PBS (HPLC peak area)” value was “did not show significant changes”. Besides, the “inhibitory activity on MX-1 cells after UV irradiation versus non-irradiated group” value in data set [4] (UV 1 min vs no UV) is given as “approximately three times higher”.
Regarding `C[C@H](NC(=O)OC(C)(C)C)C(=O)OCc1cc2c(cc1[N+](=O)[O-])OCO2` [compound 6, (6-Nitrobenzo[d][1,3]dioxol-5-yl)methyl (tert-butoxycarbonyl)-L-alaninate], the “irradiation time to complete release (photolysis)” value in [6] was not above 20 min. Also, the IC50 was more than 10000 nM in data set [3] (240 h, UV-, no irradiation); more than 10000 nM in data set [3] (setting [8]); more than 10000 nM in data set [4] (240 h, UV-, no irradiation); more than 10000 nM in data set [4] (setting [8]).

In general, IC50 refers to the concentration at which inhibition is half-maximal.
